# Test results: patent US20230416245A1, “ADENOSINE ANALOGS FOR THE TREATMENT OF DISEASE” (BIOINTERVENE, INC., priority 2020, published 2023)
# Biological target: ADORA3 (Homo sapiens (Human), UniProt P0DMS8)
# Test: Intracellular calcium release assay (FLIPR)
# Format: cell-based
# Conditions: for EC50: CHO-K1 cells, Fluo-4, top concentration 10 μM, read-out: Cell Calcium Assay EC50; for Cell Calcium Efficacy (%): percentage of the response to NECA
# Procedure, shortened: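 Cells stably expressing ADORA3 (20,000/well, 16–20 h) were loaded with Fluo-4 Direct plus 2.5 mM probenecid for 50 min at 37 °C and 10 min at RT. Compounds (10-point, 3-fold series) were added on FLIPR and the Max–Min fluorescence taken. Activation % was set against high-agonist and DMSO wells, with variable-slope EC50 and efficacy relative to NECA.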
# ADORA3, sequence (P0DMS8 whole entry): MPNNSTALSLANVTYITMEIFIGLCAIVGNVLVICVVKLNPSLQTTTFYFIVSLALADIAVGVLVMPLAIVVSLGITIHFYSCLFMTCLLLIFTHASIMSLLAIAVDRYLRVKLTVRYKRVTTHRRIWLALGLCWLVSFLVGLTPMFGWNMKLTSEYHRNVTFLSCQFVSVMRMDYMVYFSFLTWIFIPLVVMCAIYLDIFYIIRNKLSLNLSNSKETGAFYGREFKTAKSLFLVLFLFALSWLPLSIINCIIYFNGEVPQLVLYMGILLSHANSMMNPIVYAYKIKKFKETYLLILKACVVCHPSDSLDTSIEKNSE
EC50,Cell Calcium Efficacy (%),SMILES
4.7 nM,46.8%,"O[C@@H]1[C@H](O)[C@@H]2C[C@@H]2[C@H]1n1cnc2c(NCC(F)F)nc(Cl)nc21 [Compound 35, (1R,2R,3S,4R,5S)-4-(2-chloro-6-((2,2-difluoroethyl)amino)-9H-purin-9-yl)bicyclo[3.1.0]hexane-2,3-diol]"
6.1 nM,55.9%,"O[C@@H]1[C@H](O)[C@@H]2C[C@@H]2[C@H]1n1cnc2c(NCC(F)F)cc(Cl)nc21 [Compound 40, (1R,2R,3S,4R,5S)-4-(5-chloro-7-((2,2-difluoroethyl)amino)-3H-imidazo[4,5-b]pyridin-3-yl)bicyclo[3.1.0]hexane-2,3-diol]"
≥ 10000 nM,4.8%,"CCNc1cc(C#CC2CC2)nc2c1ncn2[C@H]1[C@H](O)[C@H](O)[C@@H]2C[C@@H]21 [Compound 46, (1R,2R,3S,4R,5S)-4-(5-(cyclopropylethynyl)-7-(ethylamino)-3H-imidazo[4,5-b]pyridin-3-yl)bicyclo[3.1.0]hexane-2,3-diol]"
> 10000 nM,10%,"Cc1c(Cl)nc2c(ncn2[C@H]2[C@H](O)[C@H](O)[C@@H]3C[C@@H]32)c1NCC(F)F [Compound 60, (1R,2R,3S,4R,5S)-4-(5-chloro-7-((2,2-difluoroethyl)amino)-6-methyl-3H-imidazo[4,5-b]pyridin-3-yl)bicyclo[3.1.0]hexane-2,3-diol]"
